# US20240390285A1, “HIGH-DOSE COMPRESSIBLE DOSAGE FORMS MANUFACTURED BY SIMULTANEOUS MELT-COATING AND MELT-GRANULATION OF ACTIVE PHARMACEUTICAL INGREDIENTS” (Rutgers, The State University of New Jersey, priority 2021, published 2024)
# Values joined by “and” are separate entries in the source; they are usually repeats but may differ in a detail not shown here. Equal entries are not always repeated. Where two headings read alike, the source gives them in different places.
# Assays:
# [1] = cited from earlier work
# [2] = cited from earlier work; remark: listed apart in the source
# [3] = Granule tabletability, […] compactor simulator; format: physicochemical; conditions: 600 mg darunavir, 12 mm
# Method: This provided an assessment of granule tabletability using a […] compactor simulator, producing 12 mm flat cylindrical tablets having a thickness of approximately 4.6 mm.
# The processing parameters for the granules in table 8 were: 0.4 kg/h throughput, 300 rpm screw speed, 60° C. processing temperature.
# The granules were blended with 1% of MgSt and formed into tablets using […] tooling.
# [4] = Percent loss-on-drying (LOD); format: physicochemical
# [5] = tablet 96% darunavir + 1% MgSt + 3% CMC-Na, avg. pre-compression force 1.54-1.84 kN
# [6] = tablet 99% darunavir + 1% MgSt, avg. pre-compression force 1.67-1.80 kN
# [7] = tablet 99% darunavir + 1% MgSt, avg. pre-compression force 9.59-10.16 kN
SMILES,solubility ([1]; pH of 2.0-5.5),solubility ([1]; pH of 5.5-6.1),"dissociation constant, pKa [2]","Avg. Crushing Force/Hardness [3, 5]","Tablet density [3, 5]","Tensile Strength [3, 5]","Avg. Crushing Force/Hardness [3, 6]","Tablet density [3, 6]","Tensile Strength [3, 6]","Avg. Crushing Force/Hardness [3, 7]","Tablet density [3, 7]","Tensile Strength [3, 7]","percent loss-on-drying, Avg. ([4]; average of 3 samples)","percent loss-on-drying (weight loss due to moisture evaporation) ([4]; individual Samples 1-3, listed as Pure Darunavir)"
"NC(=O)c1nc(F)c[nH]c1=O [favipiravir, 6-fluoro-3-oxo-3,4-dihydropyrazine-2-carboxamide]",only slightly soluble,sparingly soluble,5.1,–,–,–,–,–,–,–,–,–,–,–
"CC(C)CN(C[C@@H](O)[C@H](Cc1ccccc1)NC(=O)O[C@H]1CO[C@H]2OCC[C@H]21)S(=O)(=O)c1ccc(N)cc1 [darunavir, Darunavir]",–,–,–,65.3 N,1.16 g/mL,0.76 MPa,42.9 N,1.14 g/mL,0.49 MPa,36.8 N,1.15 g/mL,0.42 MPa,4.42%,4.36% and 4.28% and 4.63%
